Literature values as cited in patent publication US10314922B2, “Trimaleimide linkers and uses thereof” (NewBio Therapeutics, Inc., priority 2015, dated 2019).

System: human carcinoma lines

- IC50: 100 to 200 nM
SMILES: COc1cccc2c1C(=O)c1c(O)c3c(c(O)c1C2=O)C[C@@](O)(C(=O)CO)C[C@@H]3O[C@H]1C[C@H](N)[C@H](O)[C@H](C)O1 [doxorubicin, Doxorubicin]
